Source: US20120101169A1, “METHODS OF PROVIDING ANTICOAGULATION EFFECTS IN SUBJECTS” (Penwest Pharmaceuticals Co., priority 2010, published 2012)
Values joined by “and” are separate entries in the source; they are usually repeats but may differ in a detail not shown here. Identical values can stand only once. Marks after values point to notes of the source that are not given here.

Assays:
protein S = experiment: Extended coagulation biomarker panel: protein S; assay type: in vivo, human; details: Part 2, 0.67 g TID, Day 4
Text: (§1) In Part 1 the extended panel was collected at screening and at check-in (Day −1) and Day 2 of each period unless the study results warranted a different sampling schedule. In Part 2, the same of the exploratory coagulation biomarkers were collected at screening, check-in, Day 4, and Day 8 in Cohorts 1 and 2, or at check-in, Day 7, and Day 14 in Cohorts 3 and 4 with the following exception: in Cohorts 3 and 4, platelet function was collected at check-in only or when medically indicated.

[1] = system: coagulation (PT, INR, aPTT); experiment: Basic coagulation panel (PT, INR, aPTT) and coagulation safety (Example 5)
Text: (§2) The INR is the ratio of a subject's prothombin time (PTtest) to the prothombin time of a normal (control) sample (PTnormal), raised to the power of the International Sensitivity Index (ISI) value for the analytical system:
“Prothrombin time” or “PT” refers to the time it takes the blood plasma of a subject to clot after the addition of a thromboplastin reagent. “Thromboplastin reagent” refers to a standardized commercial product which is used in blood coagulation assays to measure blood clotting time.
(§3) As used herein, the terms “activated partial thromboplastin time” or “aPTT” or “partial thromboplastin time” or “PTT,” refer to the time it takes the blood plasma of a subject to clot after the addition of a phospholipid (i.e., partial thromboplastin) and calcium chloride. Non-limiting examples of phospholipids for use in determining aPTT include silica and kaolin.
INR grades are used to rank the severity thresholds for the coagulation factors relative to the upper normal of limit values (ULN). The higher the INR grade the higher the severity. […] As used herein, “Grade 1” refers to an INR value of 1.1 to 1.65 in a subject. As used herein, “Grade 2” refers to an INR value of 1.65 to 2.2 in a subject. As used herein, “Grade 3” refers to an INR value greater than 2.2 in a subject.
Thus both the basic coagulation panel assessments including PT, INR, aPTT, and platelet counts were performed at screening, on Day −1, and extensively throughout the treatment period to assess the potential effect of ATQ on coagulation.
This section covers the PD effect of ATQ on the coagulation parameters PT, INR, and aPPT and the relative time course of drug induced changes in these parameters.

factor X = experiment: Extended coagulation biomarker panel: factor X; assay type: in vivo, human
Text: as §1

[2] = Safety and tolerability of (R,R,R) α-tocopherol quinone in healthy male and female subjects (Example 1); details: high and moderate fat meal
Protocol: The safety and tolerability of (R,R,R) α-tocopherol quinone was tested in healthy male and female subjects. Twelve subjects were divided into two groups of six subjects each (Groups A and B). Group A was administered 1.5 g of a (R,R,R) α-tocopherol quinone twice a day for one day. Group B was administered 1.0 g of (R,R,R) α-tocopherol quinone three times a day for 1 day. Both groups of subjects were fed under high and moderate fat meal content.

factor II (prothrombin) = experiment: Extended coagulation biomarker panel: factor II; assay type: in vivo, human; details: Part 2, 0.67 g TID, Day 4
Text: as §1

[3] = Single-dose ascending-dose pharmacokinetics of ATQ in healthy volunteers (Example 4); details: for CL/F: fed conditions, mean
Protocol: Healthy adult male subjects were enrolled into 1 of 6 cohorts of 10 subjects, and randomly assigned to receive either alpha-tocopherolquinone (ATQ) (8 subjects) in olive oil or placebo (2 subjects). Safety, tolerability and PK characteristics of ATQ were assessed under fasted conditions (low dose of 0.25 g and 0.5 g) and fed conditions (range of 0.5 g to 6.0 g), during co-administration with 400 IU vitamin E (2.0 g), and following a 2.2 g total dose administered in 3 equally-divided doses of 0.735 g, and 7 hours apart. There was a 2-week interval between dosing of cohorts while a medical review of the data collected on the preceding dose was conducted. Blood samples for the measurement of ATQ concentration were collected pre-dose and up to 168 hours following dose administration. All plasma ATQ concentrations were determined using a GLP validated bioanalytical method. Blood samples for the measurement of vitamin E concentrations were collected prior to and at 24 hours following dose administration (Cohorts 1, 2, and 3) and serially for up to 24 hours in Cohorts 4 through 6 except for Cohort 4, Period 2 (vitamin E co-administration) where samples were collected for up to 96 hours. Urine was collected for the measurement of ATQ and its metabolites in pooled intervals up to 72 hours post-dose for all cohorts.

[4] = system: coagulation tests (PT, INR, PTT); experiment: Coagulation tests (PT, INR, PTT) after single ATQ dose (Example 4); details: for Highest postdose PT value above ULN: one subject
Text: as §2
“Prothrombin time” or “PT” refers to the time it takes the blood plasma of a subject to clot after the addition of a thromboplastin reagent. “Thromboplastin reagent” refers to a standardized commercial product which is used in blood coagulation assays to measure blood clotting time. Non-limiting examples of thromboplastin reagents include RecombiPlasTin (Beckman Coulter, Brea, Calif.), INNOVN® and THROMBOREL® (Dade Behring, Liederbach, Germany).
as §3

factor V = experiment: Extended coagulation biomarker panel: factor V; design: species or system human; details: in vivo
Text: as §1

[5] = Cohort 5 (6-g ATQ), subject with highest PT
[6] = Cohort 6 (2.2-g as 0.735-g TID)
[7] = of the 48 subjects who received ATQ

Structure (SMILES): CC1=C(C)C(=O)C(CC[C@](C)(O)CCC[C@H](C)CCC[C@H](C)CCCC(C)C)=C(C)C1=O [ATQ, alpha-tocopherolquinone]
- Decrease from baseline activity of protein S (protein S): 56%
- INR values reached by individual subjects ([1]; 0.67 g TID group, 3 of 8 subjects): 2.3 and 3.0 (2×)
- Subjects with that grade of INR increase ([1]; 0.75 g BID, Grade 2): 2 of 6
- Subjects with that grade of INR increase ([1]; 2-g/day (0.67 g TID), Grade 3, active-treated): 3 of 8
- Effect on coagulation (INR, PT, aPTT) ([1]; 3-g over 1 day, 0.33 g TID and 0.67 g TID or 0.75 g BID): clear effect on coagulation
- Effect on coagulation during prolonged dosing ([1]; 14 days at 0.5 g and 0.75 g BID): appeared to slowly abate while still on drug beyond 8 days
- Subjects with clinical coagulation laboratory values greater than 1.5 times the upper limit of normal (value greater than 1.65) ([1]; Part 1): 5 subjects
- Subjects with clinically relevant changes in clinical laboratory values related to treatment-emergent adverse events ([1]; Part 1): Twelve
- Active-treated subjects with clinically relevant changes in clinical laboratory values related to treatment-emergent adverse events ([1]; b179, part not stated): Twenty-five
- Subjects with study-drug related clinical coagulation laboratory values greater than 1.5 times the upper limit of normal (value greater than 1.65) ([1]; b179, part not stated): 11 subjects
- Onset of the effect on coagulation ([1]; following the first (high dose) of ATQ, Part 1): 18 h
- Time course of the effect on coagulation ([1]; initial increase through Day 4, second peak by Day 7 to 8): biphasic
- Onset of the effect on coagulation ([1]; multiple dose administration): ≤ 48 h
- Time at which most subjects approach baseline coagulation values ([1]; post last dose): 48 h
- Subjects with that grade of INR increase ([1]; single daily doses of 3-g ATQ, Grade 2): 4 of 12
- Decrease from baseline activity of factor X (factor X; Part 2, 0.67 g TID, Day 4): 62%
- Decrease from baseline activity of factor X (factor X; Part 2, Day 14): 68%
- Safety and tolerability (side effects) ([2]; Group A: 1.5 g twice a day for one day): no side effects were observed
- Safety and tolerability (side effects) ([2]; Group B: 1.0 g three times a day for 1 day): no side effects were observed
- Decrease from baseline activity of factor II (factor II (prothrombin)): 51%
- Increase in bioavailability with a high-fat meal ([3]; 0.5 g with high-fat meal versus fasted): over 60 fold
- ATQ concentration versus time profile with and without vitamin E ([3]; 2 g QD dose, with and without 400-IU of vitamin E): essentially unchanged
- CL/F ([3]; 2.2 g (0.735 g TID), N = 8): 22.731 L/h
- Effect of dividing the dose on ATQ bioavailability ([3]; 2.2 g as 3 doses of 0.735 g 7 hours apart rather than a single unit): significantly increased ATQ bioavailability
- Baseline-adjusted ATQ concentration at 24 hours as share of Cmax ([3]; 24 hours post-dose): less than 1%
- Tmax ([3]; male, human, plasma, oral): 6 h
- Time for ATQ concentrations to return to endogenous baseline levels ([3]; post-dose): ≤ 24 h
- CL/F ([3]; single 0.5 g dose, N = 6): 25.910[b] L/h
- CL/F ([3]; single 1.0 g dose, N = 7): 15.950[c] L/h
- CL/F ([3]; single 2.0 g dose, N = 7): 33.404[c] L/h
- CL/F ([3]; single 6.0 g dose, N = 6): 62.824[b] L/h
- Dose proportionality of absorption ([3]; single doses 0.5 g to 6.0 g after high-fat breakfast): dose proportional between 0.5 g and 1 g but was blunted at higher doses
- Absorption under fasted conditions ([3]; single oral doses 0.25 g and 0.5 g, fasted): poorly absorbed
- Unchanged ATQ in urine samples ([3]; urine collected up to 72 hours post-dose): not detected
- INR change ([4]; 2 g administered as a single entity (2 g QD)): NO INR change
- Subjects with 24-hour postdose PT value above ULN ([4]; Cohort 3 (1-g ATQ)): 2 of 8
- 24-hour postdose PT value above ULN ([4]; Cohort 3 (1-g ATQ), 2 of 8 subjects): 5.2%
- Subjects with postdose PT values above ULN ([4]; Cohort 5 (6-g ATQ)): 5 of 8
- Highest postdose PT value above ULN ([4]; Cohort 5 (6-g ATQ)): 39.1%
- Increase in INR above ULN [4, 5]: 23.1%
- Increase in PTT above ULN [4, 5]: 5.6%
- Subjects with postdose PT values above ULN [4, 6]: 4 of 8
- Highest postdose PT value above ULN [4, 6]: 20.9%
- Increase in INR above ULN ([4]; Cohort 6 (2.2-g as 0.735-g TID), subject with highest PT): 7.7%
- Subjects with a 24-hour postdose INR value above ULN [4, 7]: 2 subjects
- Subjects with a 24-hour postdose PTT value above ULN [4, 7]: 1 subject
- Subjects with postdose PT values above the upper limit of normal (ULN) [4, 7]: 11 subjects
- Time for INR and PTT values to return to normal range ([4]; postdose, all subjects): ≤ 48 h
- Effect on the coagulation tests, especially PT and INR ([4]; single doses, 48 subjects who received ATQ): slight but not clinically significant effect
- Reversibility of changes in hemostasis ([4]; upon cessation of the treatment): fully reversible
- Effect on the activity of factor V (factor V): did not appear to affect
